Measurements reported in the supplement of paper PMC11061612.

How the values were obtained:
Capivasertib = compound: C1CN(CCC1(C(=O)N[C@@H](CCO)C2=CC=C(C=C2)Cl)N)C3=NC=NC4=C3C=CN4 [Capivasertib]; settings: max 10 µM
How it was run: (§1)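 After 24 hours at 37°C and 5% CO2 in 1536-well plates holding 7.5 μl of DMEM/F12 or RPMI with 10% FBS, cancer cell lines were dosed for 72 hours, with final DMSO typically 0.2%. Viability came from CellTiter-Glo 2.0 luminescence, scaled between the means of blank wells and DMSO wells. A non-linear mixed effects model fitted a two-parameter logistic curve to each dose response to give the single-agent IC50.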

AZD1775 = compound: C=CCn1c(=O)c2cnc(Nc3ccc(N4CCN(C)CC4)cc3)nc2n1-c1cccc(C(C)(C)O)n1 [AZD1775]; settings: max 3 µM
How it was run: as §1

Trametinib = compound: CC(=O)Nc1cccc(-n2c(=O)n(C3CC3)c(=O)c3c(Nc4ccc(I)cc4F)n(C)c(=O)c(C)c32)c1 [Trametinib]; settings: max 1 µM
How it was run: as §1

Palbociclib = compound: CC(=O)c1c(C)c2cnc(Nc3ccc(N4CCNCC4)cn3)nc2n(C2CCCC2)c1=O [Palbociclib]; settings: max 10 µM
How it was run: as §1

AZD1390 = compound: CC(C)n1c(=O)n(C)c2cnc3cc(F)c(-c4ccc(OCCCN5CCCCC5)nc4)cc3c21 [AZD1390]; settings: max 0.3 µM
How it was run: as §1

Venetoclax = compound: CC1(C)CCC(CN2CCN(c3ccc(C(=O)NS(=O)(=O)c4ccc(NCC5CCOCC5)c([N+](=O)[O-])c4)c(Oc4cnc5[nH]ccc5c4)c3)CC2)=C(c2ccc(Cl)cc2)C1 [Venetoclax]; settings: max 1 µM
How it was run: as §1

Dasatinib = compound: CC1=C(C(=CC=C1)Cl)NC(=O)C2=CN=C(S2)NC3=CC(=NC(=N3)C)N4CCN(CC4)CCO [Dasatinib]; settings: max 2 µM
How it was run: as §1

SG3199 = compound: CC1=CN2[C@@H](C1)C=NC3=CC(=C(C=C3C2=O)OC)OCCCCCOC4=C(C=C5C(=C4)N=C[C@@H]6CC(=CN6C5=O)C)OC [SG3199]; settings: max 0.001 µM
How it was run: as §1

AZD2811 = compound: CCN(CCO)CCCOc1ccc2c(Nc3cc(CC(=O)Nc4cccc(F)c4)[nH]n3)ncnc2c1 [AZD2811]; settings: max 1 µM
How it was run: as §1

SN-38 = compound: CCc1c2c(nc3ccc(O)cc13)-c1cc3c(c(=O)n1C2)COC(=O)[C@]3(O)CC [SN-38]; settings: max 0.3 µM
How it was run: as §1

AZD0156 = compound: CN(C)CCCOc1ccc(-c2ccc3ncc4c(c3c2)n(C2CCOCC2)c(=O)n4C)cn1 [AZD0156]; settings: max 3 µM
How it was run: as §1

AZD4320 = compound: CN(CC[C@H](CSC1=CC=CC=C1)NC2=C(C=C(C=C2)S(=O)(=O)NC(=O)C3=CC=C(C=C3)N4CCC(CC4)[C@H](C5=CC=CC=C5C6=CC=C(C=C6)Cl)O)S(=O)(=O)C(F)(F)F)CCO [AZD4320]; settings: max 1 µM
How it was run: as §1

Alisertib = compound: COc1cc(Nc2ncc3c(n2)-c2ccc(Cl)cc2C(c2c(F)cccc2OC)=NC3)ccc1C(=O)O [Alisertib]; settings: max 10 µM
How it was run: as §1

Gefitinib = compound: COc1cc2ncnc(Nc3ccc(F)c(Cl)c3)c2cc1OCCCN1CCOCC1 [Gefitinib]; settings: max 10 µM
How it was run: as §1

Prexasertib = compound: COc1cccc(OCCCN)c1-c1cc(Nc2cnc(C#N)cn2)n[nH]1 [Prexasertib]; settings: max 1 µM
How it was run: as §1

Doxorubicin = compound: COc1cccc2c1C(=O)c1c(O)c3c(c(O)c1C2=O)C[C@@](O)(C(=O)CO)C[C@@H]3O[C@H]1C[C@H](N)[C@H](O)[C@H](C)O1 [Doxorubicin]; settings: max 1 µM
How it was run: as §1

AZD5153 = compound: COc1nnc2ccc(N3CCC(c4ccc(OCCN5CCN(C)C(=O)[C@H]5C)cc4)CC3)nn12 [AZD5153]; settings: max 1 µM
How it was run: as §1

Lapatinib = compound: CS(=O)(=O)CCNCc1ccc(-c2ccc3ncnc(Nc4ccc(OCc5cccc(F)c5)c(Cl)c4)c3c2)o1 [Lapatinib]; settings: max 10 µM
How it was run: as §1

AZD8186 = compound: C[C@@H](Nc1cc(F)cc(F)c1)c1cc(C(=O)N(C)C)cc2c(=O)cc(N3CCOCC3)oc12 [AZD8186]; settings: max 3 µM
How it was run: as §1

Crizotinib = compound: C[C@@H](Oc1cc(-c2cnn(C3CCNCC3)c2)cnc1N)c1c(Cl)ccc(F)c1Cl [Crizotinib]; settings: max 10 µM
How it was run: as §1

Savolitinib = compound: C[C@@H](c1ccc2nccn2c1)n1nnc2ncc(-c3cnn(C)c3)nc21 [Savolitinib]; settings: max 1 µM
How it was run: as §1

AZD6738 = compound: C[C@@H]1COCCN1C2=NC(=NC(=C2)C3(CC3)[S@](=N)(=O)C)C4=C5C=CNC5=NC=C4 [AZD6738]; settings: max 10 µM
How it was run: as §1

AZD5991 = compound: Cc1c2c(nn1C)CSCc1cc(n(C)n1)CSc1cc(c3ccccc3c1)OCCCc1c(C(=O)O)n(C)c3c-2c(Cl)ccc13 [AZD5991]; settings: max 1 µM
How it was run: as §1

AZD7648 = compound: Cc1cc2ncnn2cc1Nc1ncc2c(n1)n(C1CCOCC1)c(=O)n2C [AZD7648]; settings: max 10 µM
How it was run: as §1

Taselisib = compound: Cc1nc(-c2cn3c(n2)-c2ccc(-c4cnn(C(C)(C)C(N)=O)c4)cc2OCC3)n(C(C)C)n1 [Taselisib]; settings: max 10 µM
How it was run: as §1

Selumetinib = compound: Cn1cnc2c(F)c(Nc3ccc(Br)cc3Cl)c(C(=O)NOCCO)cc21 [Selumetinib]; settings: max 10 µM
How it was run: as §1

MK-2206 = compound: NC1(c2ccc(-c3nc4ccn5c(=O)[nH]nc5c4cc3-c3ccccc3)cc2)CCC1 [MK-2206]; settings: max 10 µM
How it was run: as §1

Olaparib = compound: O=C(c1cc(Cc2n[nH]c(=O)c3ccccc23)ccc1F)N1CCN(C(=O)C2CC2)CC1 [Olaparib]
How it was run: as §1

Cell Line | IC50, cell viability 72 h (Capivasertib) | IC50, cell viability 72 h (AZD1775) | IC50, cell viability 72 h (Trametinib) | IC50, cell viability 72 h (Palbociclib) | IC50, cell viability 72 h (AZD1390) | IC50, cell viability 72 h (Venetoclax) | IC50, cell viability 72 h (Dasatinib) | IC50, cell viability 72 h (SG3199) | IC50, cell viability 72 h (AZD2811) | IC50, cell viability 72 h (SN-38) | IC50, cell viability 72 h (AZD0156) | IC50, cell viability 72 h (AZD4320) | IC50, cell viability 72 h (Alisertib) | IC50, cell viability 72 h (Gefitinib) | IC50, cell viability 72 h (Prexasertib) | IC50, cell viability 72 h (Doxorubicin) | IC50, cell viability 72 h (AZD5153) | IC50, cell viability 72 h (Lapatinib) | IC50, cell viability 72 h (AZD8186) | IC50, cell viability 72 h (Crizotinib) | IC50, cell viability 72 h (Savolitinib) | IC50, cell viability 72 h (AZD6738) | IC50, cell viability 72 h (AZD5991) | IC50, cell viability 72 h (AZD7648) | IC50, cell viability 72 h (Taselisib) | IC50, cell viability 72 h (Selumetinib) | IC50, cell viability 72 h (MK-2206) | IC50, cell viability 72 h (Olaparib; max 10 µM) | IC50, cell viability 72 h (Olaparib; max 3 µM)
NCI-H513 (Other Solid Carcinomas) | > 10 µM | > 3000 nM | 643 nM | > 10 µM | > 300 nM | > 1000 nM | > 2000 nM | > 1 nM | > 1000 nM | 210 nM | > 3000 nM | > 1000 nM | > 10 µM | > 10 µM | > 1000 nM | > 1000 nM | > 1000 nM | > 10 µM | > 3000 nM | > 10 µM | > 1000 nM | > 10 µM | > 1000 nM | > 10 µM | > 10000 nM | > 10 µM | > 10 µM | > 10 µM | –
NCI-H1573 (Lung Adenocarcinoma) | > 10 µM | > 3000 nM | 429 nM | > 10 µM | > 300 nM | > 1000 nM | > 2000 nM | > 1 nM | > 1000 nM | > 300 nM | > 3000 nM | > 1000 nM | > 10 µM | > 10 µM | 296 nM | > 1000 nM | > 1000 nM | > 10 µM | > 3000 nM | > 10 µM | > 1000 nM | > 10 µM | > 1000 nM | > 10 µM | > 10000 nM | > 10 µM | > 10 µM | > 10 µM | –
NCI-H2347 (Lung Adenocarcinoma) | > 10 µM | > 3000 nM | > 1000 nM | > 10 µM | > 300 nM | > 1000 nM | > 2000 nM | > 1 nM | > 1000 nM | > 300 nM | > 3000 nM | > 1000 nM | > 10 µM | > 10 µM | > 1000 nM | > 1000 nM | > 1000 nM | > 10 µM | > 3000 nM | > 10 µM | > 1000 nM | > 10 µM | > 1000 nM | > 10 µM | > 10000 nM | > 10 µM | > 10 µM | > 10 µM | –
NCI-H2405 (Lung Adenocarcinoma) | > 10 µM | > 3000 nM | 430 nM | > 10 µM | > 300 nM | > 1000 nM | > 2000 nM | > 1 nM | > 1000 nM | > 300 nM | > 3000 nM | > 1000 nM | > 10 µM | > 10 µM | > 1000 nM | > 1000 nM | > 1000 nM | > 10 µM | > 3000 nM | > 10 µM | > 1000 nM | > 10 µM | > 1000 nM | > 10 µM | > 10000 nM | > 10 µM | > 10 µM | > 10 µM | –
OVISE (Ovarian Carcinoma) | > 10 µM | 952 nM | > 1000 nM | > 10 µM | > 300 nM | > 1000 nM | 415 nM | > 1 nM | > 1000 nM | > 300 nM | > 3000 nM | 463 nM | 8.95 µM | > 10 µM | 100 nM | > 1000 nM | 681 nM | > 10 µM | > 3000 nM | > 10 µM | > 1000 nM | 5.98 µM | > 1000 nM | > 10 µM | 449 nM | > 10 µM | > 10 µM | > 10 µM | –
PFSK-1 (Other Solid Carcinomas) | > 10 µM | 1060 nM | > 1000 nM | > 10 µM | > 300 nM | > 1000 nM | > 2000 nM | – | > 1000 nM | 32.4 nM | > 3000 nM | > 1000 nM | > 10 µM | > 10 µM | 40.4 nM | – | > 1000 nM | > 10 µM | > 3000 nM | 3.07 µM | > 1000 nM | 8.13 µM | 114 nM | > 10 µM | 626 nM | > 10 µM | 2.09 µM | – | > 3 µM
RPMI-7951 (Melanoma) | 3.38 µM | 489 nM | 136 nM | > 10 µM | > 300 nM | > 1000 nM | 130 nM | > 1 nM | > 1000 nM | 15.8 nM | > 3000 nM | > 1000 nM | 2.14 µM | > 10 µM | 19.4 nM | 173 nM | 630 nM | > 10 µM | 2730 nM | 5.75 µM | > 1000 nM | 2.25 µM | 488 nM | > 10 µM | 2350 nM | > 10 µM | – | > 10 µM | –
SCC-3 (B-Cell Non-Hodgkin's Lymphoma) | > 10 µM | 370 nM | > 1000 nM | > 10 µM | > 300 nM | > 1000 nM | > 2000 nM | > 1 nM | > 1000 nM | 6.1 nM | > 3000 nM | > 1000 nM | 0.721 µM | > 10 µM | 17.6 nM | 386 nM | 67.4 nM | > 10 µM | > 3000 nM | 0.717 µM | > 1000 nM | 1.07 µM | > 1000 nM | > 10 µM | > 10000 nM | > 10 µM | – | > 10 µM | –
